In patent US10150761B2, “Substituted pyridine-piperazinyl analogues as RSV antiviral compounds” (Janssen Sciences Ireland UC, priority 2013, dated 2018):

Key:
HeLa cells = assay: Cytotoxicity in HeLa cells (ATP content, ATPlite kit); assay type: cell-based; details: three days incubation
Method: (§1) Glycosaminoglycan sulfation requirements for respiratory syncytial virus infection; Journal of virology (2000), 74(22), 10508-13) and was in-licensed from the NIH (Bethesda, Md., USA). Finally, 20 μL of a HeLa cell suspension (3,000 cells/well) were plated. Medium, virus- and mock-infected controls were included in each test. The wells contain 0.05% DMSO per volume. Cells were incubated at 37° C. in a 5% CO2 atmosphere. Three days post-virus exposure, viral replication was quantified by measuring GFP expression in the cells by an in house developed MSM laser microscope (Tibotec. Beerse, Belgium). The EC50 was defined as the 50% inhibitory concentration for GFP expression. In parallel, compounds were incubated for three days in a set of white 384-well microtiter plates (Corning) and the cytotoxicity of compounds in HeLa cells was determined by measuring the ATP content of the cells using the ATPlite kit (PerkinElmer, Zaventem, Belgium) according to the manufacturer's instructions. The CC50 was defined as the 50% concentration for cytotoxicity.

rgRSV224 virus = assay: Antiviral activity: rgRSV224 (GFP) replication in HeLa cells; assay type: cell-based, respiratory syncytial virus (RSV); details: for EC50: human respiratory syncytial virus, HeLa, 72 h, read-out: RSV HELA pEC50, rgRSV224 virus (MOI=1), HeLa cells, GFP expression, three days post-virus exposure (converted)
Method: Black 384-well clear-bottom microtiter plates (Corning, Amsterdam, The Netherlands) were filled via acoustic drop ejection using the echo liquid handler (Labcyte, Sunnyvale, Calif.), 200 nL of compound stock solutions (100% DMSO) were transferred to the assay plates, 9 serial 4-fold dilutions of compound were made, creating per quadrant the same compound concentration. The assay was initiated by adding 10 μL of culture medium to each well (RPMI medium without phenol red, 10% FBS-heat inactivated, 0.04% gentamycin (50 mg/mL). All addition steps are done by using a multidrop dispenser (Thermo Scientific, Erembodegem, Belgium). Next, rgRSV224 virus (MOI=1) diluted in culture medium was added to the plates, rgRSV224 virus is an engineered virus that includes an additional GFP gene (Hallak L K, Spillmann D. Collins P L, Peeples M E.
as §1

[1] = Cytotoxicity in HeLa cells (ATP content, ATPlite kit); assay type: cell-based; details: human, three days incubation, read-out: TOX HELA pCC50 (converted)
Method: as §1

Structure (SMILES)	melting point [°C]	TOX HELA pCC50 (HeLa cells)	RSV HELA pEC50 (rgRSV224 virus; rgRSV224 virus (MOI=1), HeLa cells, GFP expression, three days post-virus exposure)	CC50 at 3 days [1] [nM]	EC50 (rgRSV224 virus) [nM]
COc1ccc(-c2ncccc2N2CCN(c3ccncc3)CC2)cc1 [Compound 4]	216	<4.01	6.38	–	–
c1cnc(-c2coc3ccccc23)c(N2CCN(c3ccncc3)CC2)c1 [Compound 38]	210	–	–	44700	132
CC(C)(O)c1ncccc1N1CCN(c2ccncc2)CC1 [Compound 70]	163	–	–	> 100000	19100
OCCCn1c(-c2ncccc2N2CCN(c3ccncc3)CC2)cc2ccccc21 [Compound 50]	110	–	–	> 100000	6.61
Fc1ccc(-c2ncccc2N2CCN(c3ccncc3)CC2)cc1 [Compound 13]	173.62	–	–	> 89100	603
c1cnc(-c2ccc3c(c2)OCO3)c(N2CCN(c3ccncc3)CC2)c1 [Compound 9]	187.8	–	–	> 100000	692
c1cnc(-c2ccc3ccccc3c2)c(N2CCN(c3ccncc3)CC2)c1 [Compound 10]	162.05	–	–	39800	79.4
c1cnc(-c2cccc3ccccc23)c(N2CCN(c3ccncc3)CC2)c1 [Compound 26]	90	–	–	7410	85.1
c1ccc(Oc2nccnc2N2CCN(c3ccncc3)CC2)cc1 [Compound 54]	130	–	–	87100	10700
c1cnc(-c2cnc3ccccc3c2)c(N2CCN(c3ccncc3)CC2)c1 [Compound 33]	182	–	–	> 100000	219
OC(c1ccccc1)(c1ccccc1)c1ncccc1N1CCN(c2ccncc2)CC1 [Compound 68]	260	–	–	> 25100	25.1
c1cnc(-c2ccc3ncsc3c2)c(N2CCN(c3ccncc3)CC2)c1 [Compound 45]	196	–	–	> 100000	155
c1cnc(-c2cccc3ncccc23)c(N2CCN(c3ccncc3)CC2)c1 [Compound 31]	96	–	–	> 97700	724
c1cnc(-c2ccncc2)c(N2CCN(c3ccncc3)CC2)c1 [Compound 20]	166	–	–	> 100000	871
CC(=O)c1cccc(-c2ncccc2N2CCN(c3ccccc3)CC2)c1 [Compound 8]	175.94	–	–	> 100000	646
c1cnc(-c2ccc(N3CCCCC3)cc2)c(N2CCN(c3ccncc3)CC2)c1 [Compound 60]	92	–	–	22900	355
Fc1cccc(-c2ncccc2N2CCN(c3ccncc3)CC2)c1 [Compound 12]	184.88	–	–	> 100000	871
COc1ccc(-c2ncccc2N2CCN(c3ccncc3)CC2)cn1 [Compound 17]	138	–	–	> 97700	437
CSc1ccc(-c2ncccc2N2CCN(c3ccncc3)CC2)cc1 [Compound 35]	160	–	–	45700	117
c1cnc(-c2cc3ccccc3o2)c(N2CCN(c3ccncc3)CC2)c1 [Compound 23]	252	–	–	> 50100	58.9
Cn1ccc2cc(-c3ncccc3N3CCN(c4ccncc4)CC3)ccc21 [Compound 24]	197	–	–	46800	72.4
c1cnc(-c2ccc3cc[nH]c3c2)c(N2CCN(c3ccncc3)CC2)c1 [Compound 44]	195	–	–	53700	32.4

Structure (SMILES)	melting point [°C]	TOX HELA pCC50 (HeLa cells)	RSV HELA pEC50 (rgRSV224 virus; rgRSV224 virus (MOI=1), HeLa cells, GFP expression, three days post-virus exposure)	CC50 at 3 days [1] [nM]	EC50 (rgRSV224 virus) [nM]
FC(F)(F)Oc1ccc(-c2ncccc2N2CCN(c3ccncc3)CC2)cc1 [Compound 25]	176	–	–	33100	871
c1cnc(-c2ccc3c(c2)OCCO3)c(N2CCN(c3ccncc3)CC2)c1 [Compound 22]	88	–	–	398	537
CC(=O)c1cccc(-c2nccnc2N2CCN(c3ccccc3)CC2)c1 [Compound 1]	172.56	–	–	2290	955
Fc1cccc(-c2nccnc2N2CCN(c3ccccc3)CC2)c1 [Compound 6]	139.51	–	–	> 100000	575
c1cnc(-c2ccc3occc3c2)c(N2CCN(c3ccncc3)CC2)c1 [Compound 27]	192	–	–	74100	135
Cn1ccc2cc(C(F)(F)F)c(-c3ncccc3N3CCN(c4ccncc4)CC3)cc21 [Compound 49]	120	–	–	75900	67.6
CCn1ccc2cc(-c3ncccc3N3CCN(c4ccncc4)CC3)ccc21 [Compound 37]	110	–	–	21900	30.9
Clc1ccc(-c2ncccc2N2CCN(c3ccncc3)CC2)cc1Cl [Compound 11]	159.5	–	–	28200	269
Cn1ccc2ccc(-c3ncccc3N3CCN(c4ccncc4)CC3)cc21 [Compound 41]	174.57	–	–	49000	11.5
c1coc(-c2ccc(-c3nccnc3N3CCN(c4ccncc4)CC3)cc2)c1 [Compound 55]	153.75	–	–	36300	794
c1cnc(-c2cc3ccccc3s2)c(N2CCN(c3ccncc3)CC2)c1 [Compound 21]	224	–	–	10500	204
Cn1ccc2c(-c3ncccc3N3CCN(c4ccncc4)CC3)cccc21 [Compound 43]	170	–	–	45700	30.2
COc1ccc(-c2ccc(-c3ncccc3N3CCN(c4ccncc4)CC3)cc2)cc1 [Compound 62]	178	–	–	11500	257
c1cnc(-c2ccc3c(c2)CCO3)c(N2CCN(c3ccncc3)CC2)c1 [Compound 30]	200	–	–	1700	603
c1coc(-c2ccc(-c3ncccc3N3CCN(c4ccncc4)CC3)cc2)c1 [Compound 56]	224.32	–	–	19500	95.5
Cc1ccc(-c2ccc(-c3ncccc3N3CCN(c4ccncc4)CC3)cc2)o1 [Compound 65]	230	–	–	11000	191
CS(=O)(=O)Nc1ccc(-c2ncccc2N2CCN(c3ccncc3)CC2)cc1 [Compound 42]	248	–	–	> 100000	501
c1ccc(-c2ccc(-c3ncccc3N3CCN(c4ccncc4)CC3)cc2)cc1 [Compound 59]	98	–	–	10700	525
c1ccc(-c2ncccc2N2CCN(c3ccncc3)CC2)cc1 [Compound 2]	204.15	–	–	1120	603
OCCCn1ccc2cc(-c3ncccc3N3CCN(c4ccncc4)CC3)ccc21 [Compound 46]	110	–	–	52500	148
c1cnc(-c2ccc3[nH]ccc3c2)c(N2CCN(c3ccncc3)CC2)c1 [Compound 36]	252	–	–	44700	79.4
